This note sets out measurements from patent publication US20250066389A1, “HETEROCYCLIC AMIDES AND METHODS OF USING THE SAME” (Rgenta Therapeutics, Inc., priority 2021, published 2025).

Counter-ions that a name gives are not always drawn.

The assay relates to PMS1. The assay is described as follows: Mini-Gene Reporter Assay—PMS1 (firefly luciferase mini-gene reporter transiently transfected into HEK293 cells). It counts as cell-based. The settings on record: Homo sapiens, mini-gene firefly luciferase reporter in HEK293 cells; for activation at 5 µM: read-out: PMS1 % Effect at 5 uM. The essentials: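 HEK293 cells transiently transfected with a mini-gene construct (skipped exon with flanking introns/exons fused to firefly luciferase, pcDNA3.1) are incubated with compounds in duplicate. Exon inclusion raises luminescence; EC50 fitted by Levenberg-Marquardt; effect also scored at 5 μM.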

Turning to `CCOc1cn2nc(C)cc2cc1C(=O)Nc1cnc(N2CCN[C@@H](C)C2)cn1` [Compound 701, 6-ethoxy-2-methyl-N-{5-[(3S)-3-methylpiperazin-1-yl]pyrazin-2-yl}pyrazolo[1,5-a]pyridine-5-carboxamide], the activation at 5 µM is over 75%.
`CCOc1cc2nc(C)cn2cc1C(=O)Nc1ccc(N2CCNC(C)(C)C2)nn1` [Compound 221, N-(6-(3,3-dimethylpiperazin-1-yl)pyridazin-3-yl)-7-ethoxy-2-methylimidazo[1,2-a]pyridine-6-carboxamide hydrochloride]: the IC50 is under 1000 nM.
As to `COc1cc2nc(C)cn2cc1C(=O)Nc1ccc(N2CCNCC2)nn1` [Compound 118, 7-methoxy-2-methyl-N-[6-(piperazin-1-yl)pyridazin-3-yl]imidazo[1,2-a]pyridine-6-carboxamide], the IC50 was under 1000 nM.
`CCOc1cc2nc(C)cn2cc1C(=O)Nc1ccc(N2CCC(NC)CC2)nn1` [Compound 226]: the IC50 lay within 1000 to 10000 nM.
As for `CCOc1cc2nc(C)cn2cc1C(=O)Nc1ccc(N2CCC(NCCOC)CC2)nn1` [Compound 245], the IC50 lay in the range of 1000 to 10000 nM.
Still for that read-out and setting: then `CCOc1cc2nc(C)cn2cc1C(=O)Nc1ccc(N2CCCC(NC)C2)nn1` (stereo not drawn) [Compound 283], with 1000 to 10000 nM.
On to `CCOc1cn2nc(C)cc2cc1C(=O)Nc1cnc(NC[C@@H]2C[C@H](F)CN2)cn1` [Compound 539], for which the activation at 5 µM was under 50%.
Regarding `CCOc1cc2nn(C)cc2cc1C(=O)Nc1cnc(N2CCCC3(CCNC3)C2)nc1` (stereo not drawn) [Compound 441], the activation at 5 µM was under 50%.
Consider `COc1cc2nc(C)cn2cc1C(=O)Nc1ccc(N2CCC3(CC2)CNC3)cc1F` [Compound 150, N-(2-fluoro-4-(2,7-diazaspiro[3.5]nonan-7-yl)phenyl)-7-methoxy-2-methylimidazo[1,2-a]pyridine-6-carboxamide], for which the activation at 5 µM was under 50%.
With `COc1cc2nc(C)cn2cc1C(=O)Nc1ccc(N2CCNCC2)nc1` [Compound 119, 7-methoxy-2-methyl-N-[6-(piperazin-1-yl)pyridin-3-yl]imidazo[1,2-a]pyridine-6-carboxamide], the IC50 lay within 1000 to 10000 nM.
In the case of `CCOc1cc2nc(C)cn2cc1C(=O)Nc1cnc(N2CCCNCC2)nc1` [Compound 653], the activation at 5 µM is under 50%.
On to `CCOc1cc2nc(C)cn2cc1C(=O)Nc1ccc(N2CCC(NC)C2)nn1` (stereo not drawn) [Compound 280], for which the IC50 was under 1000 nM.
In the case of `CCOc1cc2nn(C)cc2cc1C(=O)Nc1cnc(N2CCOC3(CCNCC3)C2)nc1` [Compound 459], the activation at 5 µM was under 50%.
`CCOc1cc2nn(C)cc2cc1C(=O)Nc1cnc(NCCC2CCCCN2)cn1` (stereo not drawn) [Compound 358]: the activation at 5 µM was in the range of 50 to 75%.
`Cc1cn2cc(C(=O)Nc3ccc(N4CCNCC4)cc3F)nc(C)c2n1` [Compound 109, N-(2-fluoro-4-(piperazin-1-yl)phenyl)-2,8-dimethylimidazo[1,2-a] pyrazine-6-carboxamide hydrochloride]: the activation at 5 µM was over 75%.
As for `CCOc1cc2nc(C)cn2cc1C(=O)Nc1ccc(N2C3CCCC2CNC3)nn1` [Compound 238], the IC50 was in the range of 1000 to 10000 nM.
For the molecule `CCOc1cc2nn(C)cc2cc1C(=O)Nc1cnc(NCC2CNCCO2)cn1` (stereo not drawn) [Compound 354], the activation at 5 µM is under 50%.
`CCNC1CCN(c2ccc(NC(=O)c3cn4cc(C)nc4cc3OCC)nn2)CC1` [Compound 269] returned an IC50 of 1000 to 10000 nM.
In the case of `CCOc1cc2nn(C)cc2cc1C(=O)Nc1cnc(N2CCC3(CNCCO3)C2)nc1` (stereo not drawn) [Compound 429], the activation at 5 µM was under 50%.
For the molecule `CCOc1cc2nc(C)cn2cc1C(=O)Nc1cnc(N2CCNC(C)C2)nc1` (stereo not drawn) [Compound 654], the activation at 5 µM was over 75%.
Take `CCOc1cc2nn(C)cc2cc1C(=O)Nc1cnc(N2CCC(C3CCCN3)CC2)cn1` (stereo not drawn) [Compound 338]: the activation at 5 µM is over 75%.
For `COc1cc2nc(C)cn2cc1C(=O)Nc1ccc(N2CC3CCCC(C2)N3)cc1F` [Compound 147, N-(4-(3,9-diazabicyclo[3.3.1]nonan-3-yl)-2-fluorophenyl)-7-methoxy-2-methylimidazo[1,2-a]pyridine-6-carboxamide], the IC50 was under 1000 nM.
On to `CCOc1cc2nn(C)cc2cc1C(=O)Nc1cnc(N[C@@H]2CNC[C@@H](F)C2)cn1` [Compound 307], for which the activation at 5 µM is 50 to 75%.
`CCOc1cc2nn(C)cc2cc1C(=O)Nc1cnc(NCCNC)nc1` [Compound 472]: the activation at 5 µM is under 50%.
As to `CCOc1cc2nc(C)cn2cc1C(=O)Nc1ccc(N2CCN(CC3CCNCC3)CC2)nn1` [Compound 259], the IC50 lay in the range of 1000 to 10000 nM.
For the molecule `CCOc1cc2nn(C)cc2cc1C(=O)Nc1cnc(NC2CCCNC2)cn1` (stereo not drawn) [Compound 375], the activation at 5 µM fell in the range of 50 to 75%.
As for `CCOc1cc2nc(C)cn2cc1C(=O)Nc1ccc(N2CCC3(CCNC3)C2)nn1` (stereo not drawn) [Compound 286], the IC50 was in the range of 1000 to 10000 nM.
In the case of `CCOc1cc2nc(C)cn2cc1C(=O)Nc1ccc(N2CC(C3CCNC3)C2)nn1` (stereo not drawn) [Compound 227], the concentration for half-maximal inhibition (IC50) fell in the range of 1000 to 10000 nM.
The same measure, in the same setting: then `CCOc1cc2nc(C)cn2cc1C(=O)Nc1cnc(N2CCN[C@@H](C)C2)cn1` [Compound 700, 7-ethoxy-2-methyl-N-5-[(3S)-3-methylpiperazin-1-yl]pyrazin-2-ylimidazo[1,2-a]pyridine-6-carboxamide], with under 1000 nM.
As for `COc1cc2nc(C)cn2cc1C(=O)Nc1ccc(N2CCNC(CF)C2)cc1F` (stereo not drawn) [Compound 159, N-(2-fluoro-4-(3-(fluoromethyl)piperazin-1-yl)phenyl)-7-methoxy-2-methylimidazo[1,2-a]pyridine-6-carboxamide], the activation at 5 µM is 50 to 75%.
As to `CCOc1cc2nc(C)cn2cc1C(=O)Nc1cnc(N2C[C@@H](C)N[C@@H](C)C2)cn1` [Compound 719, N-(5-((3S,5R)-3,5-dimethylpiperazin-1-yl)pyrazin-2-yl)-7-ethoxy-2-methylimidazo[1,2-a]pyridine-6-carboxamide], the IC50 is under 1000 nM.
Take `CCOc1cc2nn(C)cc2cc1C(=O)Nc1cnc(N2CCNC(C)C2)cn1` (stereo not drawn) [Compound 374]: the activation at 5 µM was over 75%.
In the case of `CCOc1cn2nc(C)cc2cc1C(=O)Nc1ccc(N2CCNCC2)nn1` [Compound 753, 6-ethoxy-2-methyl-N-(6-(piperazin-1-yl)pyridazin-3-yl)pyrazolo[1,5-a]pyridine-5-carboxamide hydrochloride], the activation at 5 µM was over 75%.
In the case of `CCOc1cn2nc(C)cc2cc1C(=O)Nc1cnc(N2CCNC(CS(C)(=O)=O)C2)nc1` (stereo not drawn) [Compound 608], the activation at 5 µM was under 50%.
`Cc1cn2cc(C(=O)Nc3ccc(N4CCN[C@@H](C)C4)nn3)c(OCC(F)(F)F)cc2n1` [Compound 216, (S)-2-methyl-N-(6-(3-methylpiperazin-1-yl)pyridazin-3-yl)-7-(2,2,2-trifluoroethoxy)imidazo[1,2-a]pyridine-6-carboxamide] returned an IC50 of under 1000 nM.
With `CCOc1cc2nn(C)cc2cc1C(=O)Nc1cnc(NC2CCCNC2C)nc1` (stereo not drawn) [Compound 415], the activation at 5 µM is under 50%.
On the same count and under the same terms, then `CCOc1cn2nc(C)cc2cc1C(=O)Nc1cnc(N2CC(N)C2)nc1` [Compound 595], with under 50%; and `CCOc1cc2nn(C)cc2cc1C(=O)Nc1cnc(N2CCC3(CC2)CNCCO3)cn1` [Compound 350], with 50 to 75%.
In turn, `CCOc1cc2nn(C)cc2cc1C(=O)Nc1ccc(N2CCN(CC)[C@@H](C)C2)nn1` [Compound 300, (S)-6-ethoxy-N-(6-(4-ethyl-3-methylpiperazin-1-yl)pyridazin-3-yl)-2-methyl-2H-indazole-5-carboxamide hydrochloride] returned an IC50 of 1000 to 10000 nM.
As for `CCOc1cc2nn(C)cc2cc1C(=O)Nc1cnc(NCC2COCCN2)cn1` (stereo not drawn) [Compound 349], the activation at 5 µM is under 50%.
Turning to `COc1cc2nc(C)cn2cc1C(=O)Nc1ccc(N2CCC3(CC2)COC(C)CN3)cc1F` (stereo not drawn) [Compound 172, N-(2-fluoro-4-(3-methyl-4-oxa-1,9-diazaspiro[5.5]undecan-9-yl)phenyl)-7-methoxy-2-methylimidazo[1,2-a]pyridine-6-carboxamide], the activation at 5 µM is 50 to 75%.
Take `CCOc1cc2nn(C)cc2cc1C(=O)Nc1cnc(NCCC2CC(F)(F)CN2)nc1` (stereo not drawn) [Compound 417]: the activation at 5 µM was under 50%.
Molecule `Cc1cn2cc(C(=O)Nc3ccc(N4CCN[C@@H](C)C4)nn3)c(OC3CCCOC3)cc2n1` (stereo partly drawn) [Compound 218, 2-methyl-N-(6-((S)-3-methylpiperazin-1-yl)pyridazin-3-yl)-7-((tetrahydro-2H-pyran-3-yl)oxy)imidazo[1,2-a]pyridine-6-carboxamide] had an IC50 of 1000 to 10000 nM.
Consider `CCOc1cc2nn(C)cc2cc1C(=O)Nc1cnc(NCC2CCNCCC2(F)F)nc1` (stereo not drawn) [Compound 395], for which the activation at 5 µM is under 50%.
Molecule `CCOc1cc2nc(C)cn2cc1C(=O)Nc1ccc(N2CC3(CNC3)C2)nn1` [Compound 277] yielded an IC50 of 1000 to 10000 nM.
On to `CCOc1cc2nn(C)cc2cc1C(=O)Nc1cnc(N2CCC(NC)C2)cn1` (stereo not drawn) [Compound 361], for which the activation at 5 µM is over 75%.
On the same count and under the same terms, the figure for `CCOc1cc2nn(C)cc2cc1C(=O)Nc1cnc(NC2CCCNC2C)cn1` (stereo not drawn) [Compound 319] is under 50%; for `CCOc1cn2nc(C)cc2cc1C(=O)Nc1cnc(N2CCCNCC2)cn1` [Compound 561] it is over 75%.
In the case of `CCOc1cc2nc(C)cn2cc1C(=O)Nc1ccc(C2=CCN(C)CC2)nn1` [Compound 759, 7-ethoxy-2-methyl-N-(6-(1-methyl-1,2,3,6-tetrahydropyridin-4-yl)pyridazin-3-yl)imidazo[1,2-a]pyridine-6-carboxamide], the activation at 5 µM is over 75%.
Regarding `CCOc1cc2nn(C)cc2cc1C(=O)Nc1cnc(N[C@@H]2CCCNC2)cn1` [Compound 377], the activation at 5 µM was in the range of 50 to 75%.
Regarding `CCNC1CCN(c2ccc(NC(=O)c3cn4cc(C)nc4cc3OC)c(F)c2)CC1` [Compound 149, N-(4-(4-(ethylamino)piperidin-1-yl)-2-fluorophenyl)-7-methoxy-2-methylimidazo[1,2-a]pyridine-6-carboxamide], the activation at 5 µM is over 75%.
